Columns and labels:
p65 subunit of NF-κB = biological target: T1, p65 subunit of NF-κB (Homo sapiens, UniProt Q04206); assay: LPS-induced NF-κB p65 DNA-binding activity in BEAS-2B cells; format: cell-based; conditions: 1 h pre-treatment, then LPS 6 h
T1 construct: endogenous in cells; host or cells: BEAS-2B
Method: BEAS-2B cells were treated with varying concentrations of PB141 for 24 h, after which (A) Nrf2 activity was measured or (C) nuclear Nrf2 concentration was determined by Western blotting. (B) In other experiments cells were pretreated with varying concentrations of PB141 for 1 h, then with LPS (500 ng/ml) for 6 h. Cells were then isolated and activity of NF-κB was measured.
BEAS-2B cells were cultured in Dulbecco's modified Eagle's medium (DMEM) containing 10% heat-inactivated fetal bovine serum, penicillin, and streptomycin (100 IU/ml). Monolayer cultures were treated with different concentrations of PB141 for 24 h. Cells were then isolated and the DNA-binding activity of the antioxidant transcription factor Nrf2 was determined. The nuclear concentration of Nrf2 was also determined by Western blotting. […] In some experiments monolayer cultures were deprived of serum for 24 h, pre-treated with different concentrations of PB141 for 1 h, then exposed to LPS for 6 h. Nuclear proteins were prepared and were used to quantify DNA-binding activity of the p65 subunit of NF-κB.

[1] = test system: OVA allergen-induced asthma in mice; assay: Ovalbumin-induced asthma model; format: in vivo; conditions: 25 mg/kg nebulized 30 min after each OVA challenge
Method: Allergen-induced asthma was produced in mice by initial sensitization by intraperitoneal (i.p.) injection of OVA on days 0 and 7 and challenge by intratracheal injection of OVA on even-numbered days 14 through 22. Thirty minutes following each OVA challenge, PB141 (25 mg/kg) or vehicle (saline) was nebulized and delivered to cage air via a micropump nebulizer. Twenty-four hours after the last challenge and nebulization; airway hyperresponsiveness to increasing concentrations of inhaled methacholine was determined by the forced oscillation (flexiVent) method. (A) Airway resistance. (B) Airway elastance. Data are representative of one of two independent experiments with n=6-8 mice per group.
Allergen induced asthma was produced in mice by initial sensitization by intraperitoneal (i.p.) injection of OVA on days 0 and 7 and challenge by intratracheal injection of OVA on even-numbered days 14 through 22. Thirty minutes after each OVA challenge, PB141 (25 mg/kg) or vehicle (saline) was nebulized and delivered to cage air via a micropump nebulizer. Twenty-four hours following the last challenge and nebulization, BAL fluid, plasma, and lung samples were obtained. (A) Total and differential cell count in BAL fluid. (B) Microscopic examination following staining of BAL fluid. (C) H2O2 production, (D) Protein concentration in BAL fluid. Data are representative of one of two independent experiments with n=7-10 mice per group; *** p<0.001.
Allergen-induced asthma was produced in mice by initial sensitization by intraperitoneal (i.p.) injection of OVA on days 0 and 7 and challenge by intracheal injection of OVA on even-numbered days 14 through 22. Thirty minutes after each OVA challenge, PB141 (25 mg/kg) or vehicle (saline) was nebulized and delivered to cage air via a micropump nebulizer. Twenty-four hours following the last challenge and nebulization lung samples were obtained. The lung was examined histologically following (A) H&E staining, (B) trichrome staining, and (C) periodic acid Schiffs (PAS) staining. Data are representative of one of two independent experiments with n=7-10 mice per group.
Allergen induced asthma was produced in mice by initial sensitization by intraperitoneal injection of OVA on days 0 and 7 and challenge by intratracheal injection of OVA on even-numbered days 14 through 22. […] Twenty-four hours following the last challenge and nebulization. airway hyperresponsiveness to methacholine challenge was measured noninvasively by whole body plethysmography (WBP; Buxco Research Systems, Wilmington, N.C.) and, invasively by computer-controlled ventilator (flexiVent; SCIREQ Inc., Montreal, Canada). Cellular Infiltration into the airspace was assessed by measuring myeloperoxidase activity in the lung and the number of polymorphonuclear neutrophils and eosinophils in bronchoalveolar lavage fluid (BALF). Lung inflammation was assessed by vascular permeability, edema, and cytokine generation. Anti-OVA IgE concentrations in the serum were measured using an ELISA kit (MD Bioproducts, St. Paul, Minn.). Lung histology sections were assessed by morphometry, with May-Grünwald-Giemsa or Periodic acid-Schiff (PAS) staining used for detection of mucopolysaccharide accumulation, Sirius Red or Masson's trichrome staining for detection of collagen deposition, and hematoxylin and eosin (H&E) staining for assessment of inflammation. Lung collagen content was determined by quantifying soluble collagen with the Sircol Collagen Assay Kit (Biocolor).

[2] = Nebulization of PB141: aerosol droplet size by Andersen cascade impactor; format: physicochemical; conditions: dissolved in water or PBS; micropump nebulizer, 10 L of air/min
Method: PB141 was dissolved in water or different concentrations of PBS and the solutions were aerosolized using a micropump nebulizer (Buxco Research Systems, Wilmington, N.C.) flowing at 10 L of air/min. Aerosol droplet size was measured with an Andersen cascade impactor. (A) Distribution of PB141 aerosol droplet sizes. (B) The concentration of PB141 during a 30 min nebulization period was measured by collecting samples during nebulization and analyzing by spectrophotometer in two independent experiments.
PB141 was dissolved in water or different concentrations of PBS and aerosols were generated using a micropump nebulizer (Buxco Research Systems, Wilmington, N.C.) flowing at 10 L of air/min. Aerosol droplet size was measured with an Andersen cascade impactor. The concentration of PB141 during a 30-min nebulization period was measured by collecting samples during nebulization and analyzing them by spectrophotometer in […]. […] Nebulization was optimal for a solution of PB141 in 2% saline, although a formulation in pure water was also effective.

[3] = FRAP assay (ferric reduction/anti-oxidant power); format: biochemical; conditions: 10 μmol compound, 5 min, 593 nm; Troxol reference
Method: The antioxidant activity of PB141 was determined by ferric reduction/anti-oxidant power (FRAP) assay in which the compound is reacted with ferric tripyridyltriazine complex. Data are representative of one of two independent experiments; n=3; *** P<0.001 versus Troxol.
The antioxidant activity of PB141 or PB157 was determined by ferric reduction/anti-oxidant power (FRAP) assay in which the compounds are reacted with ferric tripyridyltriazine complex. The ferric complex was prepared at room temperature by reaction of ferric chloride (16.7 mmol) and 2,4,6-trispyridyl-s-triazine (8.33 mmol) in pH 3.6 acetate buffer (0.25 M). The FRAP reagent was used immediately after preparation. PB141 or PB157 (10 μmol) was added to the FRAP reagent (1 ml) and mixed by vortexing. The reaction was allowed to stabilize for 5 min and the absorbance was measured. The antioxidant activities of these compounds were determined by the ability to reduce the ferric complex to a […] ferrous complex, monitored at 593 nm. Troxol (10 μmol) was used as reference standard.

T1 sequence (Q04206 whole entry): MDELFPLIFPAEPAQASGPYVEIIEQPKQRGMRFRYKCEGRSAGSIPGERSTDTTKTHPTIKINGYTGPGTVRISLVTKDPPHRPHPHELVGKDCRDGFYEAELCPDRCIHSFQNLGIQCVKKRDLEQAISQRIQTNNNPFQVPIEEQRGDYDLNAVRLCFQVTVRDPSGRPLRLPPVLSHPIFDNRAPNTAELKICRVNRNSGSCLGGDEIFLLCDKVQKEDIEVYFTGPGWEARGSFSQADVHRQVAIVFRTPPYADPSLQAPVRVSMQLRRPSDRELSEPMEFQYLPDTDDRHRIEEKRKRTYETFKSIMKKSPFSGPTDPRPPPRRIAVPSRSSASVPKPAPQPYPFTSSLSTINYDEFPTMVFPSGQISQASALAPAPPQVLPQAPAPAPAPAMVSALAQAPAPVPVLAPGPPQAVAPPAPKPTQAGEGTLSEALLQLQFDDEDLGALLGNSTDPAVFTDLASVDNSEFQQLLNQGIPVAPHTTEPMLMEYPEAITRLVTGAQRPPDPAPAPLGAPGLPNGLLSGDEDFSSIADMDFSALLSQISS

CC(=O)N[C@@H](CSC(CC(=O)CC(SC[C@H](NC(C)=O)C(=O)O)c1cnccn1)c1cnccn1)C(=O)O (stereo partly drawn) [PB141]
Inhibition of NF-κB activity at 1 μM (p65 subunit of NF-κB; 1 μM): almost complete inhibition | NF-κB activity (p65 DNA-binding) (p65 subunit of NF-κB; different concentrations): inhibited NF-κB activity in a concentration-dependent manner | Airway hyperresponsiveness to methacholine [1]: significantly suppressed | Airway remodeling [1]: lessening | Expression of cytokines, chemokines, and IgE in BALF and serum [1]: attenuated | Infiltration of inflammatory cells into the airspace and lung [1]: suppressed | Mucus accumulation [1]: lessening | Aerosol droplet size [2]: 1-2 μm | Antioxidant activity (reduction of ferric complex) [3]: highly significant and approximately equal
